Test results from patent publication US8242168B2, “Use of phthalide derivatives for the treatment of type 2 diabetes mellitus” (DSM IP Assets B.V., priority 2003, dated 2012).
“And” between values parts separate entries of the source, which are not always exact repeats. Identical values can stand only once.

How the values were obtained:
[1] = system: C3H10T1/2 cells; experiment: Glucose uptake of adipocytes (radioactive 2-deoxyglucose); format: cell-based; conditions: for Basal glucose uptake / Basal glucose uptake (result in words): 48-h treatment; for Basal glucose uptake: absence of insulin, ± SEM; for Basal glucose uptake (result in words): different concentrations
Procedure: C3H10T1/2 cells (ATCC CCL-226) were grown for 5 days to confluence in DMEM supplemented with 10% FBS medium and induced with a mixture of insulin, dexamethasone and 3-isobutyl-1-methylxanthine to differentiate into adipocytes. Nine days after the beginning of induction, cells were treated for 48-h with ligustilide at different concentrations as shown in Table 2. Glucose uptake was determined using radioactive 2-deoxyglucose (10 μM 2-DG in HBS+0.5 μCi/ml of 3[H]-2-DG), measuring glucose uptake in the absence of insulin. Basal glucose uptake was increased by 48-h treatment with ligustilide in a dose-dependent manner (Table 2). This increase in glucose uptake was specific, since the increase was not observed in the presence of phloretin, a known inhibitor of specific glucose uptake.
Growing, induction and treatment of C3H10T1/2 cells were exactly as described in Example 1, with die exception that 3-butylphthalide at different concentrations was used instead of ligustilide.
Growing, induction and treatment of C3H10T1/2 cells were exactly as described in Example 1, with the exception that 3-butylidenphthalide at different concentrations was used instead of ligustilide.

[2] = system: C3H10T1/2 cells; experiment: Differentiation of adipocytes (oil Red O staining); format: cell-based; conditions: for Differentiation of the cells into adipocytes versus insulin alone (result in words): co-treatment with insulin, 10 days; for Mean OD ± SEM (oil Red O, 540 nm): 10-day treatment
Procedure: After the 10-day treatment, the cells were stained with oil Red O as follows: cells were washed 2× in PBS and fixed in 10% formalin at room temperature for 1 h. After removal of formalin, 200 μl of oil Red O staining solution (3:2 mixture of 0.5% w/v oil Red O stock solution and water) was applied to each well. The cells were incubated for 20 min at room temperature, washed twice in 2×PBS and incubated for 10 min with 300 μl of isopropanol/well for oil Red O extraction. Quantification of oil Red O was determined by measuring absorbance at 540 nm (mean OD).
The measurement of adipocyte differentiation using the oil Red O assay was performed as described in Example 4.

[3] = system: C57BLKS/J db/db mice; experiment: Blood glucose and oral glucose tolerance test in db/db mice; format: in vivo
Procedure: The efficacy of ligustilide on glucose tolerance was tested in a 7-day study in C57BLKS/J db/db mice (n=10/group), a model of late type 2 diabetes mellitus with severe hyperglycemia which is widely used to determine the efficacy of PPARγ ligands.
Male db/db mice were obtained from Jackson Laboratory (Bar Harbor, Me., USA). Adult mice aged 12 weeks were used in the experiment. Mice were housed individually in plastic cages with bedding and allowed free access to standard rodent food and tap water. The animal rooms were controlled for temperature (24° C.), humidity (55%), and light (12-h light-dark cycle). The animals were randomized in two groups and ligustilide was administered orally to one of the groups for 7 days at a dose of 200 mg/kg BW/day. After 7 days of treatment the concentration of glucose was determined in blood from fed animals, i.e., animals which were not restricted from food. After a period of 5 days of treatment an oral glucose tolerance test (OGTT) was performed. For the OGTT mice were fasted overnight and then a 1-g glucose/kg BW solution was orally administered. […] Blood glucose was measured by a glucose analyzer (Glucotrend Premium, Roche Diagnostics, Rotkreuz, Switzerland).

[4] = insulin 1 × 10^−7 M + compound 1 × 10^−5 M
[5] = insulin 1 × 10^−7 M + compound 1 × 10^−4 M

| Compound | Basal glucose uptake ([1]; 1 × 10^−4 M) | Basal glucose uptake ([1]; 1 × 10^−5 M) | Basal glucose uptake ([1]; 1 × 10^−6 M) | Basal glucose uptake (result in words) [1] | Differentiation of the cells into adipocytes versus insulin alone (result in words) [2] | Mean OD ± SEM (oil Red O, 540 nm) [2, 4] | Mean OD ± SEM (oil Red O, 540 nm) [2, 5] | Basal glucose uptake ([1]; 5 × 10^−5 M) | further results |
| --- | --- | --- | --- | --- | --- | --- | --- | --- | --- |
| CCCC[C@@H]1OC(=O)c2ccccc21 (stereo in doubt) [3-Butylphthalide] | 136.7 ± 8.5 % of control | 97.5 ± 8.5 % of control | 99.3 ± 8.5 % of control | increase | higher differentiation | 0.21 ± 0.01 | – | – | – |
| CCC/C=C1\OC(=O)c2ccccc21 [3-Butylidenephthalide] | 137.3 ± 8.5 % of control | 123.8 ± 8.5 % of control | 107.0 ± 8.5 % of control | increase | higher differentiation | 0.15 ± 0.01 | 0.28 ± 0.01 | – | Mean OD ± SEM (oil Red O, 540 nm) ([2]; insulin 1 × 10^−7 M + compound 5 × 10^−5 M): 0.22 ± 0.01 |
| CC1(COc2ccc(CC3SC(=O)NC3=O)cc2)CCCCC1 (centres unmarked) [Ciglitazone, reference compound] | – | – | – | – | – | – | – | 381.5 ± 24.4 % of control | – |
| CCC/C=C1\OC(=O)C2=C1CCC=C2 [Ligustilide] | 175.0 ± 24.4 % of control | – | – | increased | higher differentiation | – | – | 131.8 ± 24.4 % of control | Basal glucose uptake ([1]; 2 × 10^−4 M): 294.4 ± 24.4 % of control; Basal glucose uptake ([1]; 5 × 10^−6 M): 105.9 ± 24.4 % of control; Increase in glucose uptake in the presence of phloretin ([1]; phloretin, inhibitor of specific glucose uptake): not observed; Glucose AUC of an OGTT (result in words) ([3]; 1 g glucose/kg body weight, day 5): significantly reduced; Blood glucose levels during the OGTT versus control (result in words) ([3]; OGTT on day 5, 15-180 min): lower at all time points; Glucose levels of fasted animals versus untreated control (result in words) ([3]; after 5 days of treatment, overnight fasting): significantly decreased; Glucose levels of fed animals (result in words) ([3]; after 7 days of treatment, 200 mg/kg BW/day): significantly lowered; Blood Glucose Fasted ([3]; db/db mice, 200 mg/kg BW/day orally, after 5 days, overnight fasting): 196 mg/dL; Blood Glucose Fed ([3]; db/db mice, 200 mg/kg BW/day orally, after 7 days, fed animals): 388 mg/dL; Glucose AUC (OGTT) ([3]; db/db mice, 200 mg/kg BW/day orally, day 5, OGTT 1 g glucose/kg BW, 0-180 min): 51039; Mean OD ± SEM (oil Red O, 540 nm) ([2]; insulin 2 × 10^−7 M + compound 5 × 10^−6 M): 1.71 ± 0.34 |
| CCCC[C@@H]1OC(=O)C2=CCCCC21 (some centres unmarked) [Sedanolide] | – | – | – | – | higher differentiation | 0.15 ± 0.01 | 0.18 ± 0.01 | – | – |
| Insulin [reference compound] | – | – | – | – | – | – | – | – | Mean OD ± SEM (oil Red O, 540 nm) ([2]; insulin 1 × 10^−7 M alone): 0.14 ± 0.01 and 0.16 ± 0.01; Mean OD ± SEM (oil Red O, 540 nm) ([2]; insulin 2 × 10^−7 M alone (negative control)): 0.687 ± 0.34 |
